In PubChem BioAssay AID1117347 (Cheminformatics & Chemogenomics Research Group (CCRG), …, 2015):
pIC50: −log10 of the molar value. The source made the active and inactive calls. No rule for the calls is given here.

System: HeLa cell count decrease
Assay: decrease in HeLa cell numbers, dose-response curve, cell enumeration, 50% inhibitory concentration (AID 1117347)

SMILES | pIC50 | IC50
Fc1ccc(C(OCCN2CCN(CCCc3ccccc3)CC2)c2ccc(F)cc2)cc1 | 5.49 | 
CN1CCCC(CC2c3ccccc3Sc3ccccc32)C1 (stereo not given) |  | > 10 µM (inactive)
CCC(=O)c1ccc(O)cc1 |  | > 10 µM (inactive)
O=C(O)CCc1nc2ccccc2[nH]1 |  | > 10 µM (inactive)
Nc1ccc2cc3ccc(N)cc3nc2c1 | 5.87 | 
COc1cc([C@@H]2c3cc4c(cc3[C@H](O)[C@H]3COC(=O)[C@H]23)OCO4)cc(OC)c1OC | 8.32 | 
NCCCC[C@H](N[C@@H](CCc1ccccc1)C(=O)O)C(=O)N1CCC[C@H]1C(=O)O |  | > 10 µM (inactive)
Oc1c(I)cc(Cl)c2cccnc12 |  | > 10 µM (inactive)
CCCCCCCCCCCCNCCNCCNCC(=O)O |  | > 10 µM (inactive)
Cc1ccc([N+](=O)[O-])[c]2c1[O][Hg]2 | 6.41 | 
CCCCCCNC(=O)n1cc(F)c(=O)[nH]c1=O |  | > 10 µM (inactive)
O=C1C(I)=CC(=C(c2cc(I)c(O)c(I)c2)c2ccccc2C(=O)O)C=C1I |  | > 10 µM (inactive)
C=C(C)[C@H]1Cc2c(ccc3c2O[C@@H]2COc4cc(OC)c(OC)cc4[C@@H]2C3=O)O1 | 6.81 | 
Cc1cc(C2CCCCC2)n(O)c(=O)c1 | 6.24 | 
O=c1c(-c2ccccc2)c1-c1ccccc1 | 5.77 | 
CCCCCCCCCCCC(=O)[O][Sn]([CH2]CCC)([CH2]CCC)[O]C(=O)CCCCCCCCCCC |  | > 10 µM (inactive)
COc1ccc(Cc2nccc3cc(OC)c(OC)cc23)cc1OC |  | > 10 µM (inactive)
COc1cccc2c1C(=O)c1c(O)c3c(c(O)c1C2=O)C[C@@](O)(C(=O)CO)C[C@@H]3O[C@H]1C[C@H](N)[C@H](O[C@@H]2CCCCO2)[C@H](C)O1 | 7.29 | 
CCN(CC)CCOc1ccccc1C(=O)CCc1ccccc1 |  | > 10 µM (inactive)
Oc1ccc([C@H]2CNCc3c2ccc(O)c3O)cc1O |  | > 10 µM (inactive)

SMILES | pIC50 | IC50
NC(N)=NN=C(/C=C/c1ccc([N+](=O)[O-])o1)/C=C/c1ccc([N+](=O)[O-])o1 |  | > 10 µM (inactive)
COc1c(C)c2c(c(O)c1C/C=C(\C)CCC(=O)OCCN1CCOCC1)C(=O)OC2 |  | > 10 µM (inactive)
Nc1nc(F)nc2c1ncn2[C@@H]1O[C@H](CO)[C@@H](O)[C@@H]1O |  | > 10 µM (inactive)
NC(=NCCCCCCN=C(N)/N=C(\N)Nc1ccc(Cl)cc1)/N=C(\N)Nc1ccc(Cl)cc1 |  | 6.71 µM (inactive)
CCC(COC(=O)c1cc(OC)c(OC)c(OC)c1)(c1ccccc1)N(C)C (stereo not given) |  | > 10 µM (inactive)
CCCCCCCCCCCCCCCC[n+]1ccccc1 | 6.39 | 
CN(C)/N=N/c1nc[nH]c1C(N)=O |  | > 10 µM (inactive)
CN(C)CCC=C1c2ccccc2CCc2ccccc21 |  | > 10 µM (inactive)
CN(Cc1cnc2nc(N)nc(N)c2n1)c1ccc(C(=O)N[C@@H](CCC(=O)O)C(=O)O)cc1 |  | > 10 µM (inactive)
CC(C)(C)C1CCC(CC2=C(O)c3ccccc3C(=O)C2=O)CC1 (stereo not given) |  | > 10 µM (inactive)
COc1cc2c(c(OC)c1OC)-c1ccc(OC)c(=O)cc1[C@@H](NC(C)=O)CC2 | 8.73 | 
CC(=O)[C@]1(O)Cc2c(O)c3c(c(O)c2[C@@H](O[C@H]2C[C@H](N)[C@H](O)[C@H](C)O2)C1)C(=O)c1ccccc1C3=O | 7.85 | 
CC[C@H](C)C(=O)O[C@H]1C[C@@H](C)C=C2C=C[C@H](C)[C@H](CC[C@@H]3C[C@@H](O)CC(=O)O3)[C@H]21 |  | > 10 µM (inactive)
O=C(Nc1ccc(Br)cc1)c1cc(Br)cc(Br)c1O |  | > 10 µM (inactive)
Cc1ccccc1C(OCCN(C)C)c1ccccc1 (stereo not given) |  | > 10 µM (inactive)
C[C@@]12C(=O)OC(=O)[C@]1(C)C1CCC2O1 | 6.00 | 
S=c1nc[nH]c2nc[nH]c12 |  | > 10 µM (inactive)
CSc1ccc2c(c1)C(N1CCN(C)CC1)Cc1ccccc1S2 (stereo not given) |  | > 10 µM (inactive)
O=C(Nc1ccc([N+](=O)[O-])cc1Cl)c1cc(Cl)ccc1O | 6.84 | 
CCCCCCCCCCCCCCCC[N+](C)(C)Cc1ccccc1 |  | > 10 µM (inactive)
